Data from patent US9403832B2, “Pyrazolo[1,5-a]pyrimidine-based compounds, compositions comprising them, and methods of their use” (Lexicon Pharmaceuticals, Inc., priority 2012, dated 2016).

Key:
[1] = biological target: T1, AAK1 (Homo sapiens, UniProt Q2M2I8); assay: P81 filter plate assay; assay type: biochemical; conditions: full-length human AAK1, Mu2 substrate, 33P-ATP
T1 construct: NP_055726.2
How it was run: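 Full-length human AAK1 (0.2 nM, 2×) was pre-incubated 10 min at RT with compounds (top concentration 96 μM in the dilution plate), then reacted 1 h at RT with full-length human Mu2 (0.2 μM, 2×), cold ATP (2 μM, 2×) and ³³P-ATP. Reactions were stopped with phosphoric acid and captured on P81 filters for scintillation counting.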

[2] = biological target: T1, AAK1; assay: HEK281 cell-based assay (CBA); conditions: HEK293F cells transfected with full length human AAK1 and AP2M1; phospho-mu2 Western blot; 3 hours incubation
Protocol: HEK293F cells were cultured in media containing DMEM (Gibco, cat. #11965), 10% FBS (SAFC Biosciences, cat. #12103C), 1× GPS (glutamine, penicillin and streptomycin). On day one, cells were plated on a 10 cm dish so that they are ˜80% confluent at time of transfection. Roughly 12 million cells were in a 10 cm dish at time of transfection. On day two, each dish was transfected with 48 ug DNA and 144 ul Lipofectamine 2000 (Invitrogen, cat. #11668-019). The DNA was comprised of a mixture (per 10 cm dish) containing 3 ug AAK1/HA/pIRES (full length human, NCBI accession no. NP_055726.2), 45 μg Flag/AP2MI/pcDNA (full length human), and 1.5 ml OPTI-MEM. The Lipofectamine 2000 is made up of a mixture (per 10 cm dish) containing 144 μl Lipofectamine 2000 and 1.5 ml OPTI-MEM. Each mixture was transferred to individual 15 ml tubes and incubated at RT for 5 minutes, and then the two mixes were combined and incubated at RT for 20 minutes.
Growth media was then aspirated from each 10 cm plate and replaced with 10 ml of DMEM+10% FBS (no GPS). Finally, 3 ml DNA/Lipofectamine mix was added to each 10 cm dish and mix gently followed by incubate of plate overnight at 37° C. and 5% CO2.
On day three, compounds were diluted in 100% DMSO at 1000× final concentration, followed by 3-fold serial dilutions for a total of 5 concentrations tested. Four compounds were tested per 10 cm dish. One ul of each compound dilution was then pipetted into a deep-well, 96-well plate, followed by addition of 500 μl DMEM+0.5% FBS into each well for a 2× final concentration of each compound. Cells were resuspended in a 10 cm dish by simple pipetting (HEK293 cells come off the plate that easy at this point) and then transferred to a 50 ml conical tube and pelleted by centrifugation at 1000 rpm for 5 min. Cell pellets were then resuspended in 2.75 ml DMEM+0.5% FBS per 10 cm dish and 100 μl of cell suspension transferred into each well of 96-well TC plate. Finally, 100 μl of 2× compound diluted in DMEM+0.5% FBS was then added into wells containing cell suspension for a 1× final concentration. Plates were then incubated at 37° C. and 5% CO2 for 3 hours followed by transferring of cell suspensions from each well into 12-tube PCR strips. The PCR strips were spun in a tip rack at 1000 rpm for 5 minutes to pellet cells and media was then removed by pipetting without disturbing the cell pellet.
To prepare for Western Blot analysis, cell pellets were resuspend in 40 ul 1× LDS-PAGE sample buffer (Invitrogen, cat.# NP0008)+2× Halt phophatase and protease inhibitor cocktail (Thermo Scientific, cat. #1861284), followed by sonicating each with microtip sonicator set at 5 for 8-10 seconds. Five ul of 10× NuPage Sample Reducing Agent (with 50 mM DTT) was to each sample followed by heat denaturing at 70 C for 10 min on PCR machine. A total of 10 μl per sample was loaded into each lane of a 4-20% Tris-Glycine Criterion 26-well gel (Biorad, cat. #345-0034) for the phospho-mu2 blot and 10 μl per lane in a 4-12% Bis-Tris (+MES buffer) NuPAGE 26-well gel (Invitrogen, cat.# WG1403BX10) for the mu2 blot. For controls, 2 ng of phospho-mu2 or 20 ng mu2/Flag proteins were loaded in the last well of each gel. After SDS-PAGE, samples on each gel were transferred to PVDF membrane using an iBlot and membranes were blocked for one hour in TBST+5% milk, followed by wash 3× for 5-10 min with TBST. Criterion gels were probed with rabbit anti-phospho-mu2 (1:5000; a rabbit polyclonal antibody produced by New England Peptide and affinity purified at Lexicon) in TBST+5% BSA, whereas, NuPAGE gels were probed with mouse anti-Flag (1:500; Sigma, cat.# F1804) in TBST+5% milk, and these primary antibodies were incubated overnight at 4° C. on a rocker.

T1 sequence (Q2M2I8 1-863 isoform Q2M2I8-2): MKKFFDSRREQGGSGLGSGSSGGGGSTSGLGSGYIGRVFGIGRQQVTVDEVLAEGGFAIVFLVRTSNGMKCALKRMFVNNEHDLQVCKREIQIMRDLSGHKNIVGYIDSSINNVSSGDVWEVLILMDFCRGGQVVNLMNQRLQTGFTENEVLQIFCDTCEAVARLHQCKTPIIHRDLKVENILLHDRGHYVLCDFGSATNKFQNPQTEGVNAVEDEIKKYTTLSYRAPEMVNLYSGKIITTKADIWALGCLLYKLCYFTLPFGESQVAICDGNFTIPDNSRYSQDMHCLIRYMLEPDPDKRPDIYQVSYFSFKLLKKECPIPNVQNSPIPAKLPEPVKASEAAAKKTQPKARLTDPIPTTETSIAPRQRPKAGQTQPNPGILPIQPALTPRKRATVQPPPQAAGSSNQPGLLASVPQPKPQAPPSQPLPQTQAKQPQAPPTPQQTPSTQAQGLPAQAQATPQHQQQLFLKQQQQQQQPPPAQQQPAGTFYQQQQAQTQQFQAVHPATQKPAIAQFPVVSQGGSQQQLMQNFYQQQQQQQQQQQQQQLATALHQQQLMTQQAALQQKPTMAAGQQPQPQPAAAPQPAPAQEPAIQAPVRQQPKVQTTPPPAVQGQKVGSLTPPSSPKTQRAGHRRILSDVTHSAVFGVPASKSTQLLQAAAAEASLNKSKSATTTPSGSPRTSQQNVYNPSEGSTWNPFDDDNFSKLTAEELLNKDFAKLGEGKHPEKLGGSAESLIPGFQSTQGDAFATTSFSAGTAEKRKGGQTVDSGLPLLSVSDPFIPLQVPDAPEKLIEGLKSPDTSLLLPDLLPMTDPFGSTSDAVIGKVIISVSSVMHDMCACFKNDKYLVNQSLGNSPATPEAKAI

SMILES | IC50 [1] [nM] | IC50 [2] [nM]
Cc1ccc(-c2cnn3ccc(N4CCN(C(=O)[C@@H](N)C(C)C)CC4)nc23)c(F)c1 [(S)-2-amino-1-(4-(3-(2-fluoro-4-methylphenyl)pyrazolo[1,5-a]pyrimidin-5-yl)piperazin-1-yl)-3-methylbutan-1-one] | ≤ 10 | ≤ 100
COC[C@@H](C)OC(=O)N1CCN(c2ccn3ncc(-c4cccnc4OC)c3n2)CC1 [(R)-1-methoxypropan-2-yl 4-(3-(2-methoxypyridin-3-yl)pyrazolo[1,5-a]pyrimidin-5-yl)piperazine-1-carboxylate] | ≤ 10 | ≤ 1000
COc1ncccc1-c1cnn2ccc(N3CCN(C(=O)[C@@H]4CCCN4)CC3)nc12 [(S)-(4-(3-(2-methoxypyridin-3-yl)pyrazolo[1,5-a]pyrimidin-5-yl)piperazin-1-yl)(pyrrolidin-2-yl)methanone] | ≤ 10 | ≤ 100
CC(C)[C@H](N)C(=O)N1CCN(c2ccn3ncc(-c4cc(F)ccc4F)c3n2)CC1 [(S)-2-amino-1-(4-(3-(2,5-difluorophenyl)pyrazolo[1,5-a]pyrimidin-5-yl)piperazin-1-yl)-3-methylbutan-1-one] | ≤ 10 | ≤ 10
COCC(C)OC(=O)N1CCN(c2ccn3ncc(-c4cccnc4OC)c3n2)CC1 (stereo not drawn) [1-methoxypropan-2-yl 4-(3-(2-methoxypyridin-3-yl)pyrazolo[1,5-a]pyrimidin-5-yl)piperazine-1-carboxylate] | ≤ 10 | ≤ 10
CN[C@@H](CC(C)C)C(=O)N1CCN(c2ccn3ncc(-c4cccnc4OC)c3n2)CC1 [(S)-1-(4-(3-(2-methoxypyridin-3-yl)pyrazolo[1,5-a]pyrimidin-5-yl)piperazin-1-yl)-4-methyl-2-(methylamino)pentan-1-one] | ≤ 10 | ≤ 10
COc1ncc(C)cc1-c1cnn2ccc(N3CCN(C(=O)OC(C)C)CC3)nc12 [isopropyl 4-(3-(2-methoxy-5-methylpyridin-3-yl)pyrazolo[1,5-a]pyrimidin-5-yl)piperazine-1-carboxylate] | ≤ 10 | ≤ 10
COC[C@H](N)C(=O)N1CCN(c2ccn3ncc(-c4cccnc4OC)c3n2)CC1 [(S)-2-amino-3-methoxy-1-(4-(3-(2-methoxypyridin-3-yl)pyrazolo[1,5-a]pyrimidin-5-yl)piperazin-1-yl)propan-1-one] | ≤ 10 | ≤ 10
CCOC(=O)N1CCN(c2ccn3ncc(-c4ccc(C)nc4OC)c3n2)CC1 [ethyl 4-(3-(2-methoxy-6-methylpyridin-3-yl)pyrazolo[1,5-a]pyrimidin-5-yl)piperazine-1-carboxylate] | ≤ 10 | ≤ 100
COc1ncccc1-c1cnn2ccc(N(C)CCCN(C)C(=O)OC(C)C)nc12 [isopropyl (3-((3-(2-methoxypyridin-3-yl)pyrazolo[1,5-a]pyrimidin-5-yl)(methyl)amino)propyl)(methyl)carbamate] | ≤ 10 | ≤ 100
COc1ncccc1-c1cnn2ccc(N3CCN(C(=O)O[C@H]4CCOC4)CC3)nc12 [(S)-tetrahydrofuran-3-yl 4-(3-(2-methoxypyridin-3-yl)pyrazolo[1,5-a]pyrimidin-5-yl)piperazine-1-carboxylate] | ≤ 10 | ≤ 10
COc1ncccc1-c1cnn2ccc(N3CC[C@H](N(C)C(=O)[C@@H](N)CC(C)C)C3)nc12 [(S)-2-amino-N-((S)-1-(3-(2-methoxypyridin-3-yl)pyrazolo[1,5-a]pyrimidin-5-yl)pyrrolidin-3-yl)-N,4-dimethylpentanamide] | ≤ 10 | ≤ 10

More lines, now with the values ahead:

IC50 [1] [nM] | IC50 [2] [nM] | SMILES
≤ 10 | ≤ 10 | CCCOC(=O)N1CCN(c2ccn3ncc(-c4ccc(C)nc4OC)c3n2)CC1 [propyl 4-(3-(2-methoxy-6-methylpyridin-3-yl)pyrazolo[1,5-a]pyrimidin-5-yl)piperazine-1-carboxylate]
≤ 10 | ≤ 100 | COc1nc(C)ccc1-c1cnn2ccc(N3CCN(C(=O)O[C@@H]4CCOC4)CC3)nc12 [(R)-tetrahydrofuran-3-yl 4-(3-(2-methoxy-6-methylpyridin-3-yl)pyrazolo[1,5-a]pyrimidin-5-yl)piperazine-1-carboxylate]
≤ 10 | ≤ 10 | COc1ccc(F)cc1-c1cnn2ccc(N3CCN(C(=O)[C@@H](N)C(C)(C)C)CC3)nc12 [(S)-2-amino-1-(4-(3-(5-fluoro-2-methoxyphenyl)pyrazolo[1,5-a]pyrimidin-5-yl)piperazin-1-yl)-3,3-dimethylbutan-1-one]
≤ 10 | ≤ 100 | COc1cc(C)ccc1-c1cnn2ccc(N3CCN(C(=O)OC(C)C)CC3)nc12 [isopropyl 4-(3-(2-methoxy-4-methylphenyl)pyrazolo[1,5-a]pyrimidin-5-yl)piperazine-1-carboxylate]
≤ 10 | ≤ 10 | COc1ccc(F)cc1-c1cnn2ccc(N3CCN(C(=O)OC(C)C)CC3)nc12 [isopropyl 4-(3-(5-fluoro-2-methoxyphenyl)pyrazolo[1,5-a]pyrimidin-5-yl)piperazine-1-carboxylate]
≤ 10 | ≤ 100 | COCCOC(=O)N1CCN(c2ccn3ncc(-c4cc(F)cnc4OC)c3n2)CC1 [2-methoxyethyl 4-(3-(5-fluoro-2-methoxypyridin-3-yl)pyrazolo[1,5-a]pyrimidin-5-yl)piperazine-1-carboxylate]
≤ 10 | ≤ 10 | COc1ncccc1-c1cnn2ccc(NC[C@@H]3CCCN3C(=O)OC(C)C)nc12 [(S)-isopropyl 2-(((3-(2-methoxypyridin-3-yl)pyrazolo[1,5-a]pyrimidin-5-yl)amino)methyl)pyrrolidine-1-carboxylate]
≤ 10 | ≤ 100 | COc1ncc(F)cc1-c1cnn2ccc(N3CCN(C(=O)OC(C)(C)C)CC3)nc12 [tert-butyl 4-(3-(5-fluoro-2-methoxypyridin-3-yl)pyrazolo[1,5-a]pyrimidin-5-yl)piperazine-1-carboxylate]
≤ 10 | ≤ 10 | [2H]C1([2H])N(C(=O)OC(C)C)C([2H])([2H])C([2H])([2H])N(c2ccn3ncc(-c4ccc(C)nc4OC)c3n2)C1([2H])[2H] [isopropyl 4-(3-(2-methoxy-6-methylpyridin-3-yl)pyrazolo[1,5-a]pyrimidin-5-yl)-d8-piperazine-1-carboxylate]
≤ 10 | ≤ 10 | CC(C)[C@H](N)C(=O)N1CCN(c2ccn3ncc(-c4ccccc4)c3n2)CC1 [(S)-2-amino-3-methyl-1-(4-(3-phenylpyrazolo[1,5-a]pyrimidin-5-yl)piperazin-1-yl)butan-1-one]
≤ 10 | ≤ 10 | COc1ncccc1-c1cnn2ccc(N3CCN(C(=O)[C@@H](N)C(C)C)CC3)nc12 [(S)-2-amino-1-(4-(3-(2-methoxypyridin-3-yl)pyrazolo[1,5-a]pyrimidin-5-yl)piperazin-1-yl)-3-methylbutan-1-one]
≤ 10 | ≤ 100 | CCCOC(=O)N1CCN(c2ccn3ncc(-c4cc(F)cnc4OC)c3n2)CC1 [propyl 4-(3-(5-fluoro-2-methoxypyridin-3-yl)pyrazolo[1,5-a]pyrimidin-5-yl)piperazine-1-carboxylate]
